Results published in US6878697B2, “Phenylamino-pyrimidines and uses thereof” (Ariad Pharmaceuticals, Inc., priority 2001, dated 2005).

Test: Hydroxyapatite assay (hydroxyapatite adsorption chromatography)
Assay type: physicochemical
Settings: corrected retention K=(retention time-void time)/void on TSK-Gel HA 1000 HPLC column; linear gradient 10 mM to 500 mM sodium phosphate, 0.15 N NaCl, pH 6.8
Method: Hydroxyapatite is the principal mineral component of bone. Hydroxyapatite adsorption chromatography is used as an assay to evaluate the bone-targeting potential of both individual bone-targeting moieties (“monomers”) and of pharmaceuticals incorporating bone-targeting groups.
Method: The rentention time of a test compound is measured using a linear gradient from 10 mM sodium phosphate, 0.15 N NaCl, pH=6.8 to 500 mM sodium phosphate, 0.15 N NaCl, […] on a TSK-Gel HA 1000 high pressure liquid chromatography column (7.5 mm×75 mm). The rentention time of the compound is expressed in terms of K=(retention time-void time)/void. This K value is corrected using two reference compounds to correct from inter-column and inter-system variation to obtain a K′ value.
Reference Compounds: K′ values were determined for known bone targeted compounds, the bisphosphonate, alendronate and tetracycline.

NCCCC(O)(P(=O)(O)O)P(=O)(O)O [Alendronate, alendronate]
K′ value: 3.7
